{
  "source": "patent US10342804B2",
  "about": "“Steroid compound for use in the treatment of hepatic encephalopathy” (Umecrine Cognition AB, priority 2014, dated 2019)",
  "key": {"[1]": {"target": "T1, human α5β3γ2L GABAA receptors (Homo sapiens, UniProt P28472+P31644)", "T1 construct": "expressed in transfected cells; host or cells: HEK-293, permanently transfected", "T1 sequence (P31644 32-462)": "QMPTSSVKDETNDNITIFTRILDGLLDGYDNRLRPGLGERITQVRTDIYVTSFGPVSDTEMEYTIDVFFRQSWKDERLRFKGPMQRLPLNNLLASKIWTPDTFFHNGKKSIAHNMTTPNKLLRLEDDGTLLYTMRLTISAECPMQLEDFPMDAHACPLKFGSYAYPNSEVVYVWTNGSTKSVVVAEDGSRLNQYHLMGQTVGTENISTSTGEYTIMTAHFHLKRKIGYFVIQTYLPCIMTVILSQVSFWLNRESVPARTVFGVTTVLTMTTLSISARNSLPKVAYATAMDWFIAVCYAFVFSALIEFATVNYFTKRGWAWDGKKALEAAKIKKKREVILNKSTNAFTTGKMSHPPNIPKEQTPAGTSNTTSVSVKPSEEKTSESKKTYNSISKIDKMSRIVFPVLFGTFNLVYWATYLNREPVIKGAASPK", "T1 sequence (P28472 26-473)": "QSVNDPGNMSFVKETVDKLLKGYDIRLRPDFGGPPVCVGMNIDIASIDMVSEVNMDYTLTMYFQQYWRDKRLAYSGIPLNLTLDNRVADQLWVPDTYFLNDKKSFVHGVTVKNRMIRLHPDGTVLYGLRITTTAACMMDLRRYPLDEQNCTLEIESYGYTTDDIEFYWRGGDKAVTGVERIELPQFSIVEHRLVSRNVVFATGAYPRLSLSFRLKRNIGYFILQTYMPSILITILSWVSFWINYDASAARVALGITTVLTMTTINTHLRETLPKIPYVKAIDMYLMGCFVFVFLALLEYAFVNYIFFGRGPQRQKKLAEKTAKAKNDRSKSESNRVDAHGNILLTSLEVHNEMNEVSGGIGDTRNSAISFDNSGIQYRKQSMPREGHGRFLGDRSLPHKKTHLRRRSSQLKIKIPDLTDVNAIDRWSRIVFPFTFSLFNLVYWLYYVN", "T1 sequence (P18507 40-475 partner)": "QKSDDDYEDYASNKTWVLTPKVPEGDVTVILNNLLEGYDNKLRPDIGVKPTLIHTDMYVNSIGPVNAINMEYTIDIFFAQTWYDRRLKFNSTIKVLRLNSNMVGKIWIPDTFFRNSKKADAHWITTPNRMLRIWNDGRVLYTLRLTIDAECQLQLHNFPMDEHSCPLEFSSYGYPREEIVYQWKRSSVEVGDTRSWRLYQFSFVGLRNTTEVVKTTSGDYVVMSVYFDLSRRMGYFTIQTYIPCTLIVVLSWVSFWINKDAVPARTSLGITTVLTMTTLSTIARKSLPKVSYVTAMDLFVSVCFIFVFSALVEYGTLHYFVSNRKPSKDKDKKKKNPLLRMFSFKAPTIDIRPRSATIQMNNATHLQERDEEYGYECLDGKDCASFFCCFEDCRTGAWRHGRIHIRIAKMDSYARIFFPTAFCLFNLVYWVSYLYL", "test": "Whole-cell voltage-clamp electrophysiology, HEK-293 cells expressing α5β3γ2L GABAA receptors", "format": "cell-based", "conditions": "α5β3γ2L expressing cells", "experimental": "(§1) For electrophysiology measurements the Dynaflow® system with the Resolve chip was used (Cellectricon, Göteborg, Sweden). HEK-293 cells were permanently transfected with vectors including the human CMV promoter for constitutive expression of the human α5, β3, and γ2L GABAA receptor subunits (α5β3γ2L) or the human α1, β2, and γ2L GABAA receptor subunits (α1β2γ2L). The cell lines used were selected for good reactivity to GABA and to THDOC. Before measurements cells were incubated for 15 min at 37° C. in 95% air+5% CO2 in extracellular solution (EC) containing the following: 137 mM NaCl, 5.0 mM KCl, 1.0 mM CaCl2, 1.2 mM MgCl2, 10 mM HEPES, and 10 mM glucose, 0.1% DMSO pH 7.4. Thereafter, detached cells were added to the EC solution in the Dynaflow chip bath.\n(§2) Whole-cell voltage-clamp recordings were made at room temperature (21-23° C., −17 mV with compensation for liquid junction potential as in Haage et al., 2002; Neher, 1992). Command pulses were generate and data collected by PClamp 9.0 software, DigiData 1322A converter, and AxonPatch 200B (Axon Instruments, Foster City, Calif.). Patch electrodes (2-6 MΩ) were filled with intracellular solution (IC) including: 140 mM Cs-gluconate, 3.0 mM NaCl, 1.2 mM MgCl2, 10 mM HEPES, 1.0 mM EGTA, 2 mM Mg-ATP, 0.1% DMSO, pH 7.2.\n(§3) THDOC and 3α-ethynyl-3β-hydroxyandrostan-17-one oxime were dissolved in dimethyl sulfoxide (DMSO) and thereafter diluted with EC solution to include 0.1% DMSO.\n(§4) Different protocols were used for different electrophysiology measurements. As α1β2γ2L-GABAA receptors in vivo are present within the synapse a condition resembling that situation, a short application (40 ms) of a high GABA concentration (30 μM), was used. Contrary, α5β3γ2L-GABAA receptors are present extrasynaptically, thus the conditions used were long exposures (6 s) to a low GABA concentration (0.3 μM). The EC75 concentration of THDOC was used, i.e. 100 nM with studies of α1β2γ2L and 200 nM when α5β3γ2L expressing cells were evaluated. With both cell types a pre-exposure with THDOC or THDOC plus 3α-ethynyl-3β-hydroxyandrostan-17-one oxime was used before application of GABA.\n(§5) Steroid effects in presence of GABA were normalized to controls in order to avoid the effects of inter- and intracellular variation in the measured parameters, each cell was used as its own control and the area under the curve (AUC) was analyzed."}, "[2]": {"target": "T2, human α1β2γ2L GABAA receptors (Homo sapiens, UniProt P14867+P47870)", "T2 construct": "expressed in transfected cells; host or cells: HEK-293, permanently transfected", "T2 sequence (P14867 28-456)": "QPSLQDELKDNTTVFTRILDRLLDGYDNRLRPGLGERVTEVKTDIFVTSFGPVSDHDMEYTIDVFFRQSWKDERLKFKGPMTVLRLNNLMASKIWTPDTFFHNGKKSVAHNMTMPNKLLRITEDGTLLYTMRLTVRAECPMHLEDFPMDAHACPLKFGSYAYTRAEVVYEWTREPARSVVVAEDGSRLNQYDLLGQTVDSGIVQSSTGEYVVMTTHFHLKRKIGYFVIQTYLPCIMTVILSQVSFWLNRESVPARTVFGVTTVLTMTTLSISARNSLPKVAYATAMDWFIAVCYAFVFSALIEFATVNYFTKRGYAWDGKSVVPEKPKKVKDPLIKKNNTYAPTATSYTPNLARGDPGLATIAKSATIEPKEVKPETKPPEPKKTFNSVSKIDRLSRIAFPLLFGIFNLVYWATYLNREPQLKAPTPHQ", "T2 sequence (P47870 25-512 limits assumed)": "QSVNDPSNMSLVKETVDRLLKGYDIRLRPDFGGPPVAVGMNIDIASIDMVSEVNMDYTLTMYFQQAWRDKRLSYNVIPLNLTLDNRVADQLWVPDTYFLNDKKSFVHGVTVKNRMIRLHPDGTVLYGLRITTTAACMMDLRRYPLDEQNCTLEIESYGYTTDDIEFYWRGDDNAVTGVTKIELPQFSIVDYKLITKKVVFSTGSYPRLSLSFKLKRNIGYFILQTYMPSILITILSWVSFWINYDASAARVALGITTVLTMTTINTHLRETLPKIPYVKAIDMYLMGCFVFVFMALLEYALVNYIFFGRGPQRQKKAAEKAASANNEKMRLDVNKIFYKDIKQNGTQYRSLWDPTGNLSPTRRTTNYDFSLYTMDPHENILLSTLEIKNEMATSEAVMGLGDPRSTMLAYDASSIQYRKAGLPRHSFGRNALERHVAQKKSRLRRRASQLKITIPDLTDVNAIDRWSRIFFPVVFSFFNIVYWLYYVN", "T2 sequence (P18507 40-475 partner)": "as the sequence (P18507 40-475 partner) above", "test": "Whole-cell voltage-clamp electrophysiology, HEK-293 cells expressing α1β2γ2L GABAA receptors", "format": "cell-based", "conditions": "α1β2γ2L expressing cells", "experimental": "as §1, §2, §3, §4, §5"}},
  "data": [
    {"compound": "C[C@]12CC[C@@H](O)C[C@H]1CC[C@@H]1[C@@H]2CC[C@]2(C)[C@@H](C(=O)CO)CC[C@@H]12", "note": "[THDOC, tetrahydrodeoxycorticosterone, reference compound]", "values": [
      {"measurement": "EC75 concentration of THDOC", "setting": "[1]", "result": 200, "unit": "nM"},
      {"measurement": "EC75 concentration of THDOC", "setting": "[2]", "result": 100, "unit": "nM"}
    ]}
  ]
}
